Measured values as given in patent US10851088B2, “Polymorphs and solid forms of a pyrimidinylamino-pyrazole compound, and methods of production” (Denali Therapeutics Inc., priority 2017, dated 2020).
Converted amounts (≈) assume the structure as drawn. Where two headings read alike, the source gives them in different places.

Columns and labels:
Assay type in all cases: physicochemical
[1] = 24 hrs solubility in H2O at RT (HPLC of supernatant, XRPD of residual solids)
Method: The solubility at 24 hrs of Forms A, C, and D was measured in water at RT. Form A, Form C, and Form D samples were suspended into H2O with dose concentration of 10 mg/mL. After slurrying the suspensions at RT for 24 hrs (1000 rpm), the supernatants were separated for HPLC solubility measurement and the residual solids were characterized by XRPD.

[2] = Dynamic vapor sorption (DVS) hygroscopicity test; settings: for water uptake: at 80% RH at 25° C., DVS
Method: To investigate the solid form stability as a function of humidity, Dynamic Vapor Sorption (DVS) isotherm plots of Form A, Form C, and Form D were collected at 25° C. between 0 and 95% relative humidity (RH) by the procedures of Example 8. […] DVS was measured via a SMS (Surface Measurement Systems) DVS Intrinsic. The relative humidity at 25° C. were calibrated against deliquescence points of LiCl, Mg(NO3)2 and KCl. [table]

[3] = Slurry competition experiments (thermodynamic stability of anhydrate forms); settings: for thermodynamic stability, Form C versus Form D: slurry competition
Method: Slurry competition experiments were performed to investigate the inter-conversion relationship between three anhydrates (Form A, C, and D). […] Slurry competition was first performed between Form A and C at RT and 50° C. Form C was obtained after slurrying for 40 hrs at RT or 2 hrs at 50° C. […] Therefore, slurry competition was further performed between Form C and D in various solvent systems. The solvent effect of H2O was discovered to be associated with the inter-conversion relationship between Form C and D, with form D forming under anhydrous conditions.
To understand the thermodynamic stability relationship between Form A and Form C, slurry competition experiments were performed at RT and 50° C. in different solvent systems, including acetone/n-heptane, methyl tert-butylether (MTBE)/heptane, and water. Form A was used to saturate the corresponding solvent before filtered to obtain a near-saturated solution. Equal amount of Form A and C samples were weighed and then mixed with the prepared near-saturated solution to form a new suspension, which was stirred magnetically (˜1000 rpm) at RT and 50° C. The XRPD patterns of remaining solids after slurry were measured. […] Form D was obtained via slurrying Form A in MTBE/n-heptane (1:4, v/v) at RT for 1 day, with the addition of Form D sample as seeds.
To further understand the thermodynamic stability relationship between Form C and Form D, slurry competition experiments were performed at RT and 70° C. in various solvent systems, including methyl tert-butylether/heptane, water, cyclohexane, and ethanol/isooctane. Equal amount of Form C and D samples were weighed and then mixed with the near-saturated solution of Form A in corresponding solvent to form a suspension, which was stirred magnetically (˜1000 rpm) at different temperatures. The XRPD patterns of remaining solids after slurry were measured. […] Water content in process solvents were monitored and controlled during the manufacturing of Form C or D samples. […] Water activity (or relative humidity) was monitored and controlled during the manufacture and storage of Form C or D samples.

[4] = Approximate solubility in solvents, used to choose slurry solvent systems
[5] = 24 hrs slurry at 10 mg/mL dose concentration, HPLC

SMILES: CNc1nc(Nc2cn(C(C)(C)C#N)nc2C)ncc1C(F)(F)F [Form A, 2-methyl-2-(3-methyl-4-(4-(methylamino)-5-(trifluoromethyl)pyrimidin-2-ylamino)-1H-pyrazol-1-yl)propanenitrile]
- form change after 24 hrs solubility evaluation (XRPD of residual solids) [1]: No form change
- solubility at 24 h ([1]; water, thermodynamic from solid, 24 hrs slurry at 10 mg/mL dose concentration, HPLC): 180 µg/mL (≈ 530 µM)
- water uptake [2]: 0.04%

SMILES: CNc1nc(Nc2cn(C(C)(C)C#N)nc2C)ncc1C(F)(F)F [Form C, 2-methyl-2-(3-methyl-4-(4-(methylamino)-5-(trifluoromethyl)pyrimidin-2-ylamino)-1H-pyrazol-1-yl)propanenitrile]
- form change after 24 hrs solubility evaluation (XRPD of residual solids) [1]: No form change
- 24 Hrs Solubility in H2O at RT [1, 5]: 140 µg/mL
- Hygroscopicity ([2]; DVS at 25° C., 0 to 95% RH): slightly hygroscopic
- water uptake [2]: 0.6%
- thermodynamic stability, Form A versus Form C ([3]; slurry competition of equal amounts of Form A and C, RT and 50° C., various solvents): thermodynamically more stable than Form A
- thermodynamic stability, Form C versus Form D ([3]; water activity aw≥0.5 at RT): more stable

SMILES: CNc1nc(Nc2cn(C(C)(C)C#N)nc2C)ncc1C(F)(F)F [Form D, 2-methyl-2-(3-methyl-4-(4-(methylamino)-5-(trifluoromethyl)pyrimidin-2-ylamino)-1H-pyrazol-1-yl)propanenitrile]
- form change after 24 hrs solubility evaluation (XRPD of residual solids) [1]: No form change
- 24 Hrs Solubility in H2O at RT [1, 5]: 110 µg/mL
- water uptake [2]: 0.05%
- thermodynamic stability, Form C versus Form D ([3]; water activity aw≤0.2 at RT): thermodynamically more stable

SMILES: CNc1nc(Nc2cn(C(C)(C)C#N)nc2C)ncc1C(F)(F)F [Formula I compound, 2-methyl-2-(3-methyl-4-(4-(methylamino)-5-(trifluoromethyl)pyrimidin-2-ylamino)-1H-pyrazol-1-yl)propanenitrile]
- solubility ([4]; H2O and non-polar solvents (e.g., n-heptane, cyclohexane), water, read-out: solubility in H2O and non-polar solvents): < 2000 µg/mL
- solubility ([4]; organic solvent or mixture, solvents other than H2O and non-polar solvents, read-out: solubility in other solvents): > 40000 µg/mL
